In patent US6495568B1, “Hydroxamic acid derivatives as matrix metalloprotease (MMP) inhibitors” (Warner-Lambert Company, priority 1997, dated 2002):

SMILES	melting point
CCCCC(C(=O)NO)S(=O)(=O)N1CC=C(c2ccc(-c3ccccc3)cc2)CC1 (racemic) [Example 13, N-Hydroxy-2(R,S)-[4-(4-phenylphenyl)-1,2,3,6-tetrahydropyridin-1-ylsulphonyl]hexanamide]	186 to 189 °C
C=C(C)CC(C(=O)NO)S(=O)(=O)N1CC=C(c2ccc(-c3ccccc3)cc2)CC1 (racemic) [Example 14, N-Hydroxy-4-methyl-2(R,S)-[4-(4-phenylphenyl)-1,2,3,6-tetrahydropyridin-1-ylsulphonyl]pent-4-enamide]	170 to 171 °C
COCCC(C(=O)NO)S(=O)(=O)N1CC=C(c2ccc(-c3ccccc3)c(C)c2)CC1 (racemic) [Example 48, N-Hydroxy-4-methoxy-2(R,S)-[4-(3-methyl-4-phenylphenyl)-1,2,3,6-tetrahydropyridin-1-ylsulphonyl]butanamide]	135 to 136 °C
O=C(NO)C(Cc1ccccc1)S(=O)(=O)N1CC=C(c2ccc(-c3ccccc3)cc2)CC1 (racemic) [Example 53, N-Hydroxy-3-phenyl-2(R,S)-[4-(4-phenylphenyl)-1,2,3,6-tetrahydropyridin-1-ylsulphonyl]propanamide]	202 to 205 °C
COc1cc(C2=CCN(S(=O)(=O)C(C)(C)C(=O)NO)CC2)ccc1-c1ccccc1 [Example 19, N-Hydroxy-2-[4-(3-methoxy-4-phenylphenyl)-1,2,3,6-tetrahydropyridin-1-ylsulphonyl]-2-methylpropanamide]	156 to 158 °C
CCOc1cccc(-c2ccc(C3=CCN(S(=O)(=O)CC(=O)NO)CC3)cc2)c1 [Example 21, N-Hydroxy-2-{4-[4-(3-ethoxyphenyl)phenyl]-1,2,3,6-tetrahydropyridin-1-ylsulphonyl}acetamide]	168 to 170 °C
COc1cccc(-c2ccc(C3=CCN(S(=O)(=O)CC(=O)NO)CC3)cc2C)c1 [Example 22, N-Hydroxy-2-{4-[4-(3-methoxyphenyl)-3-methylphenyl]-1,2,3,6-tetrahydropyridin-1-ylsulphonyl}acetamide]	162 to 165 °C
CCOc1cccc(-c2ccc(C3=CCN(S(=O)(=O)C(C)(C)C(=O)NO)CC3)cc2C)c1 [Example 30, N-Hydroxy-2-{4-[4-(3-ethoxyphenyl)-3-methylphenyl]-1,2,3,6-tetrahydropyridin-1-ylsulphonyl}2-methylpropanamide]	116 to 118 °C
COCc1cccc(-c2ccc(C3=CCN(S(=O)(=O)CC(=O)NO)CC3)cc2C)c1 [Example 42, N-Hydroxy-2-{4-[4-(3-methoxymethylphenyl)-3-methylphenyl]-1,2,3,6-tetrahydropyridin-1-ylsulphonyl}acetamide]	151 to 153 °C
COCCOc1cccc(-c2ccc(C3=CCN(S(=O)(=O)CC(=O)NO)CC3)cc2C)c1 [Example 43, N-Hydroxy-2-{4-[4-(3-[2-methoxyethoxy]phenyl)-3-methylphenyl]-1,2,3,6-tetrahydropyridin-1-ylsulphonyl}acetamide]	158 to 160 °C
Cc1cc(C2=CCN(S(=O)(=O)CC(=O)NO)CC2)ccc1-c1cccc(C(F)(F)F)c1 [Example 45, N-Hydroxy-2-{4[3-methyl-4-(3-trifluoromethylphenyl)phenyl]-1,2,3,6-tetrahydropyridin-1-ylsulphonyl}acetamide]	168 to 170 °C
Cc1cc(C2=CCN(S(=O)(=O)CC(=O)NO)CC2)ccc1-c1ccc(F)c(Cl)c1 [Example 55, N-Hydroxy-2-{4-[4-(3chloro-4-fluorophenyl)-3-methylphenyl]-1,2,3,6-tetrahydropyridin-1-ylsulphonyl}acetamide]	181 to 183 °C
COc1ccc(-c2ccc(C3=CCN(S(=O)(=O)CC(=O)NO)CC3)cc2C)cc1OC [Example 58, N-Hydroxy-2-{4-[4-(3,4-dimethoxyphenyl)-3-methylphenyl]-1,2,3,6-tetrahydropyridin-1-ylsulphonyl}acetamide]	172 to 174 °C
Cc1cc(C2=CCN(S(=O)(=O)CC(=O)NO)CC2)ccc1-c1ccc2c(c1)CCC2 [Example 59, N-Hydroxy-2-{4-[4-(indan-5-yl)-3-methylphenyl]-1,2,3,6-tetrahydropyridin-1-ylsulphonyl}acetamide]	149 to 152 °C
Cc1cc(C2=CCN(S(=O)(=O)CC(=O)NO)CC2)ccc1-c1cccc(OC(F)(F)F)c1 [Example 60, N-Hydroxy-2-{4-[3-methyl-4-(3-trifluoromethoxyphenyl)phenyl]-1,2,3,6-tetrahydropyridin-1-ylsulphonyl}acetamide]	154 °C
Cc1cc(C2CCN(S(=O)(=O)C(C)(C)C(=O)NO)CC2)ccc1-c1ccc2c(c1)OC(C)(C)O2 [Example 62, N-Hydroxy-2-{4-[4-(2,2-dimethyl-1,3-benzodioxol-5-yl)-3-methylphenyl]-piperidin-1-ylsulphonyl}-2-methylpropionamide]	184 to 186 °C
Cc1cc(C2CCN(S(=O)(=O)C(C)(C)C(=O)NO)CC2)ccc1-c1ccc2c(c1)nc(C)n2C [Example 63, N-Hydroxy-2-{4-[4-(1,2-dimethylbenzimidazol-5-yl)-3-methylphenyl]piperidin-1-ylsulphonyl]-2-methylpropionamide]	213 to 215 °C

Other lines, results leading:

melting point	SMILES
216 to 218 °C	O=C(CS(=O)(=O)N1CC=C(c2ccc(-c3ccccc3)cc2)CC1)NO [Example 1, N-Hydroxy-2-[4-(4-phenylphenyl)-1,2,3,6-tetrahydropyridin-1-ylsulphonyl]acetamide]
175 to 176 °C	O=C(CS(=O)(=O)N1CC=C(c2ccccc2)CC1)NO [Example 4, N-Hydroxy-2-(4-phenyl-1,2,3,6-tetrahydropyridin-1-ylsulphonyl)acetamide]
185 to 187 °C	O=C(CS(=O)(=O)N1CCC(c2ccccc2)CC1)NO [Example 5, N-Hydroxy-2-(4-phenylpiperidin-1-ylsulphonyl)acetamide]
132 to 135 °C	O=C(CS(=O)(=O)N1CCC(Cc2ccccc2)CC1)NO [Example 6, N-Hydroxy-2-(4-benzylpiperidin-1-ylsulphonyl)acetamide]
175 to 177 °C	COc1cc(C2=CCN(S(=O)(=O)CC(=O)NO)CC2)ccc1-c1ccccc1 [Example 18, N-Hydroxy-2-[4-(3-methoxy-4-phenylphenyl)-1,2,3,6-tetrahydropyridin-1-ylsulphonyl]acetamide]
184 to 188 °C	O=C(CS(=O)(=O)N1CC=C(c2ccc(-c3ccccc3)c(F)c2)CC1)NO [Example 20, N-Hydroxy-2-[4-(3-fluoro-4-phenylphenyl)-1,2,3,6-tetrahydropyridin-1-ylsulphonyl]acetamide]
151 to 154 °C	CCc1cccc(-c2ccc(C3=CCN(S(=O)(=O)CC(=O)NO)CC3)cc2C)c1 [Example 23, N-Hydroxy-2-{4-[4-(3-ethylphenyl)-3-methylphenyl]-1,2,3,6-tetrahydropyridin-1-ylsulphonyl}acetamide]
161 to 163 °C	COc1cccc(-c2ccc(C3CCN(S(=O)(=O)C(C)(C)C(=O)NO)CC3)cc2OC)c1 [Example 26, N-Hydroxy-2-{4-[3-methoxy-4-(3-methoxyphenyl)phenyl]piperidin-1-ylsulphonyl}-2-methylpropanamide]
134 to 136 °C	CCOc1cccc(-c2ccc(C3CCN(S(=O)(=O)C(C)(C)C(=O)NO)CC3)cc2OC)c1 [Example 27, N-Hydroxy-2-{4-[4(3-ethoxyphenyl)-3-methoxyphenyl]piperidin-1-ylsulphonyl}-2-methylpropanamide]
179 to 180 °C	CCOc1cccc(-c2ccc(C3CCN(S(=O)(=O)CC(=O)NO)CC3)cc2C)c1 [Example 31, N-Hydroxy-2-{4-[4-(3-ethoxyphenyl)-3-methylphenyl]piperidin-1-ylsulphonyl}acetamide]
172 to 174 °C	CCOc1cccc(-c2ccc(C3CCN(S(=O)(=O)C(C)(C)C(=O)NO)CC3)cc2C)c1 [Example 32, N-Hydroxy-2-{4-[4-(3-ethoxyphenyl)-3-methylphenyl]piperidin-1-ylsulphonyl}-2-methylpropanamide]
132 to 136 °C	Cc1cc(C2=CCN(S(=O)(=O)CC(=O)NO)CC2)ccc1-c1cccnc1 [Example 34, N-Hydroxy-2-{4-[3-methyl-4-(pyridin-3-yl)phenyl]-1,2,3,6-tetrahydropyridin-1-ylsulphonyl}acetamide]
174 to 176 °C	Cc1cc(C2=CCN(S(=O)(=O)CC(=O)NO)CC2)ccc1-c1cccc(CO)c1 [Example 39, N-Hydroxy-2-{4-[4-(3-hydroxymethylphenyl)-3-methylphenyl]-1,2,3,6-tetrahydropyridin-1-ylsulphonyl}acetamide]
176 to 179 °C	O=C(CS(=O)(=O)N1CCC(c2ccc(Oc3ccccc3)cc2)CC1)NO [Example 46, N-Hydroxy-2-[4-(4-phenoxyphenyl)piperidin-1-ylsulphonyl]acetamide]
155 to 156 °C	COCCOc1cccc(-c2ccc(C3CCN(S(=O)(=O)C(C)(C)C(=O)NO)CC3)cc2C)c1 [Example 47, N-Hydroxy-2-{4-[4-(3-[2-methoxyethoxy]phenyl)-3-methylphenyl]piperidin-1-ylsulphonyl}-2-methylpropanamide]
160 to 163 °C	Cc1cc(C2=CCN(S(=O)(=O)CC(=O)NO)CC2)ccc1-c1ccccc1F [Example 57, N-Hydroxy-2-{4-[4-(2-fluorophenyl)-3-methylphenyl]-1,2,3,6-tetrahydropyridin-1-ylsulphonyl}acetamide]
